{"source": "patent US20180296532A1", "about": "“RNA-Focused Small Molecules for Inhibiting RNA Toxicity in Myotonic Dystrophy” (The Scripps Research Institute, priority 2015, published 2018)", "key": {"[1]": {"test_system": "r(CUG)^exp-containing nuclear foci", "assay": "Nuclear foci by fluorescence in situ hybridization (FISH) in DM1 patient derived fibroblasts", "type": "cell-based", "details": "300 and 200 μM, 48 h; untreated cells ˜5", "description": "Bioactivity of 2GN8 was further assessed in DM1 patient derived fibroblasts for the disruption of nuclear foci. As observed in other microsatellite disorders, the binding of various proteins to r(CUG)^exp causes formation of nuclear foci.^(55) Fluorescence in situ hybridization (FISH) with a dye-labeled oligonucleotide was used to determine if 2GN8 disrupts r(CUG)^exp-containing nuclear foci. In untreated cells, the average number of foci per cell is ˜5. Treatment with 2GN8 reduces the average number of foci per cell to less than 1 at 300 and 200 μM (FIG. 11).\nFISH was utilized to determine the effects of 2GN8 on the formation and disruption of nuclear foci. DM1 patient derived fibroblasts containing 500 CTG repeats (GM03987) were grown to ˜80% confluence in a Mat-Tek 96-well glass bottom plate in growth medium. Cells were treated with 2GN8 (300, 200 and 100 μM) for 48 h in growth medium followed by FISH as previously described(63) using 1 ng/μL DY547-2′OMe-(CAG)6. Immunostaining of MBNL1 was completed as previously described(65) using the MB1a antibody (diluted 1:4), which was generously supplied by Prof. […]"}, "[2]": {"test_system": "DMPK mRNA", "assay": "Effect of 2GN8 on DMPK mRNA abundance in DM1 patient derived fibroblasts by qRT-PCR", "type": "cell-based", "details": "patient derived fibroblasts with 500 CUG repeats; bioactive concentrations", "protocol": "Evaluation of the effect of 2GN8 on the abundance of DMPK mRNA was assessed using patient derived fibroblasts with 500 CUG repeats.\nThe effect of 2GN8 on the abundance of DMPK mRNA was assessed using DM1 patient derived fibroblasts containing 500 CTG repeats (GM03987). Cells were grown as monolayers in 6 well plates in growth medium (1×EMEM (Lonza), 10% FBS, 1× glutagro (Corning), 1×MEM non-essential amino acids (Corning) and 1× antibiotic/antimycotic (Corning)). Once cells were ˜80% confluent, they were treated with growth medium containing the 2GN8 (300, 200 and 100 μM). After 48 h the cells were lysed and the total RNA was harvested using Trizol reagent (Life Technologies). Approximately 100 ng of RNA was used for RT qScript cDNA synthesis kit (Quanta BioSciences). 30% of the RT reaction was used for real time PCR (qPCR) with SYBR green master mix (Life Technologies) performed on a 7900HT Fast Real-Time PCR System (Applied Biosystems). The PCR primers for DMPK mRNA were 5′-CGTGCAAGCGCCCAG (forward) and 5′-[…] (reverse). The PCR primers for 18S ribosomal RNA were 5′-[…] (forward) and 5′-[…] (reverse)."}, "[3]": {"test_system": "C2C12 cell line expressing firefly luciferase mRNA with r(CUG)800 in the 3′ UTR", "assay": "Luciferase reporter assay for DM1 translational defects in C2C12 cells", "type": "cell-based", "description": "Exemplary Formula (I) compound 2GN8 was studied for improving translational defects associated with DM1 (due to poor nucleocytoplasmic transport of r(CUG)^exp containing transcripts).^(30, 52, 53) In particular, a cellular model system was employed in which the C2C12 cell line stably expresses r(CUG)800 embedded in the 3′ UTR of firefly luciferase.^(54) Similar to DMPK mRNA in DM1-affected cells, the expanded repeat impairs nucleocytoplasmic transport of luciferase mRNA and thus decreases luciferase expression. Compounds that bind r(CUG)^exp and disrupt the r(CUG)^exp-MBNL1 complex may stimulate cytoplasmic transport of the luciferase mRNA and thus translation of luciferase (FIG. 9A).\nC2C12 cell lines expressing 800 or 0 CTG repeats in the 3′ UTR of luciferase were grown as monolayers in 96-well plates in growth medium (1×DMEM, 10% FBS, 1× glutagro, (Corning) and 1× antibiotic/antimycotic (Corning))(66). Once the cells were 80% confluent, 2GN8 (300, 200 and 100 μM) was added in 100 μL of growth medium. Cells were treated for 48 h and then the cell count was normalized using WST-1 reagent (Roche). Then cells were washed with 1×DPBS and lysed by treating with 50 μL of PPBT lysis buffer at room temperature for 10 minutes. Then 50 μL of luciferase substrate was added and luminescence was measured."}, "[4]": {"test_system": "DM1 patient derived fibroblasts containing 500 CUG repeats", "assay": "MBNL1 pre-mRNA splicing defects in DM1 patient derived fibroblasts", "type": "cell-based", "details": "300 and 200 μM, 48 h", "protocol": "Bioactivity of 2GN8 was further assessed using DM1 patient derived fibroblasts containing 500 CUG repeats. First 2GN8 was evaluated for improvement of DM1 MBNL1 splicing defects. In DM1, mis-splicing of MBNL1 exon 5 results in an increase in inclusion to ˜30% compared to ˜15% inclusion in healthy tissue.\nBioactivity of 2GN8 was assessed by using DM1 patient derived fibroblasts containing 500 CTG repeats (GM03987) and healthy fibroblasts (GM07492). Cells were grown as monolayers in 6 well plates in growth medium (1×EMEM (Lonza), 10% FBS, 1× glutagro (Corning), 1×MEM non-essential amino acids (Corning) and 1× antibiotic/antimycotic (Corning)). Once cells were ˜80% confluent, they were treated with growth medium containing 2GN8 (300, 200 and 100 μM). After 48 h the cells were lysed and the total RNA was harvested using a Zymo Quick RNA miniprep kit. An on-column DNA digestion was completed per the manufacturer's recommended protocol. Approximately 100 ng of total RNA was reverse transcribed at 50° C. using 100 units of SuperScript III reverse transcriptase (Life Technologies). Then 20% of the RT reaction was subjected to PCR using GoTaq DNA polymerase. RT-PCR products were observed after 25 cycles of 95° C. for 30 s, 58° C. for 30 s, 72° C. for 1 min and a final extension at 72° C. for 1 min. The products were separated on an 2% agarose gel ran at 100 V for 1 h in 1×TAE buffer. […]"}, "[5]": {"test_system": "HSA^LR mice", "assay": "Myotonia grade in HSA^LR mouse model of DM1", "type": "in vivo", "details": "40 mg/kg/day; compared to untreated mice", "description": "A mouse model of DM1 has been reported in which 250 rCUG repeats are expressed using an actin promoter (human skeletal actin long repeat, HSA^LR).^24 The presence of these repeats results in dysregulation of alternative splicing in the muscle-specific chloride ion channel (Clcn1) and the sarcoplasmic/endoplasmic reticulum calcium ATPase 1 (Serca1/Atp2a1) pre-mRNAs. Clcn1 exon 7a is excluded ˜100% in mRNA from normal adult mice: DM1 mice have an exclusion rate of ˜50% (FIG. 12A)."}}, "data": [{"smiles": "N=C(N)Nc1ccc2nc(-c3ccc(-c4nc5ccc(NC(=N)N)cc5[nH]4)cc3)[nH]c2c1", "note": "[Compound 2GN8]", "values": [{"measurement": "average number of foci per cell", "setting": "[1]", "value": "less than 1"}, {"measurement": "effect on abundance of DMPK mRNA", "setting": "[2]", "value": "did not have any effect"}, {"measurement": "luciferase activity in cells without r(CUG)800", "setting": "[3]; C2C12 cells expressing firefly luciferase mRNA without r(CUG)800", "value": "does not affect luciferase activity"}, {"measurement": "luciferase activity (improvement of translational defect)", "setting": "[3]; C2C12 cells with r(CUG)800, 300 and 200 μM, 48 h", "value": "significant increase"}, {"measurement": "improvement of MBNL1 pre-mRNA splicing defects (exon 5 inclusion)", "setting": "[4]", "value": "substantially improves"}, {"measurement": "myotonia grade in quadriceps and gastrocnemius muscles", "setting": "[5]", "value": "improved myotonia grade"}]}]}
